In paper PMC10692721, “Drug discovery for heart failure targeting myosin-binding protein C” (The Journal of Biological Chemistry, 2023):
“Also recorded” adds a separate entry of the source.

Columns and labels:
[1] = test system: TMR-cC0-C2 (C0-C2 fragment of human cMyBP-C); experiment: FLT-TMR concentration-response assay (FLT of TMR on cC0-C2, no actin); format: binding; conditions: for effect on FLT of TMR-cC0-C2 (in words): concentration-response, no actin; for cC0-C2/cC0-C2#P (ratio of FLT changes) / cC0-C2 FLT change (% change from DMSO, FLT of TMR-MyBP-C): 60 μM compound
Procedure, shortened: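 Hits tested at eight concentrations (0.5–100 μM) and read on a high-throughput fluorescence lifetime plate reader. Hill fits applied only under certain conditions.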

[2] = test system: TMR-fC1-C2 (C1-C2 of fast skeletal MyBP-C); experiment: FLT-TMR concentration-response assay, fC1-C2; format: binding; conditions: for effect on FLT of TMR-fC1-C2 (in words): concentration-response, no actin; for cC0-C2/fC1-C2 (ratio of FLT changes) / fC1-C2 FLT change (% change from DMSO, FLT of TMR-MyBP-C): 60 μM compound
Procedure: (§1) Compounds identified as initial hits were further examined to determine the concentration–response curves for seven conditions ([1]): FMAL-actin alone identified actin-binding compounds that alter the FLT of FMAL-actin ([2]).
(§2) Fluorescence lifetime (FLT) measurements were acquired using a high-throughput FLT plate reader (Fluorescence Innovations, Inc) ([14], [27]), provided by Photonic Pharma LLC. […] The observed waveforms were analyzed as described previously ([15], [28]).
(§3) The primary hits were dissolved in DMSO to make a 10 mM stock solution, which was serially diluted in 96-well mother plates. Hits were screened at eight concentrations (0.5–100 μM). […] Compounds (1 μl) were transferred from the mother plates into 384-well plates using a Mosquito HV liquid handler (TTP Labtech Ltd, Hertfordshire, UK). The same procedure of dispensing as for the pilot screening was applied in the concentration-response assays. Concentration dependence of the FLT-FRET (E/EDMSO) or FLT-TMR (Δτ) change data was fit to a Hill equation only under certain conditions to help guide the eye (Fig. 4).

[3] = test system: FMAL-actin/TMR-cC0-C2 interaction; experiment: FLT-FRET concentration-response assay, FMAL-actin plus TMR-cC0-C2; format: binding, human; conditions: for effect on FLT-FRET / binding between FMAL-actin and TMR-cC0-C2 (in words): unphosphorylated cC0-C2
Procedure: as §1, §2, §3

[4] = test system: FMAL-actin/PKA-phosphorylated TMR-cC0-C2 interaction; experiment: FLT-FRET concentration-response assay, FMAL-actin plus PKA-phosphorylated TMR-cC0-C2; format: binding, human; conditions: phosphorylated cC0-C2
Procedure: as §1, §2, §3

[5] = test system: FMAL-actin/TMR-fC1-C2 interaction; experiment: FLT-FRET concentration-response assay, FMAL-actin plus TMR-fC1-C2; format: binding
Procedure: as §1, §2, §3

[6] = test system: FMAL-actin plus TMR-cC0-C2; experiment: Selleck library HTS, 473 nm excitation (FLT of FMAL-actin with TMR-cC0-C2, FLT-FRET); format: binding, human; conditions: for 473-nm Δτ, Repeat 1 / 473-nm Δτ, Repeat 2: initial screen, 30 μM compound; for 473-nm z-score (based on avg Δτ): robust z-score, hit threshold ±4, 30 μM compound
Procedure, shortened: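 Donor fluorescence lifetime was then recorded. Waveforms were fit to a single exponential, and ΔFLT was obtained after a moving-median plate-gradient correction (half-row window), rescaled by the median DMSO lifetime.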

TMR-cC0-C2 = experiment: Selleck library HTS, 532 nm excitation (FLT of TMR-cC0-C2 in presence of FMAL-actin); format: binding, human; conditions: for 532-nm Δτ, Repeat 1 / 532-nm Δτ, Repeat 2: initial screen, 30 μM compound; for 532-nm z-score (based on avg Δτ): robust z-score, hit threshold ±4, 30 μM compound
[7] = test system: PKA-phosphorylated TMR-cC0-C2 (cC0-C2#P); experiment: FLT-TMR concentration-response assay, PKA-phosphorylated cC0-C2; format: binding, human; conditions: for cC0-C2#P FLT change (% change from DMSO, FLT of TMR-MyBP-C): 60 μM compound
Procedure: as §1, §2, §3

[8] = test system: rabbit fast skeletal (psoas) myofibrils; experiment: Skeletal myofibril ATPase assay; format: biochemical; conditions: 50 μM compound; for effect on skeletal MF ATPase activity (in words): pCa 8 to pCa 4
Procedure: Rabbit psoas and bovine cardiac myofibrils were prepared as described in our previous study ([17]). An enzyme-coupled, NADH-linked ATPase assay was used to measure skeletal and cardiac myofibril ATPase activity in 96-well microplates at 23 °C. Ionic strength was maintained below 0.2 M, so myofilaments remained insoluble and stable ([32]). To achieve optimal enzymatic activities, buffers for skeletal and cardiac myofibrils differed slightly ([33], [34]): skeletal in 50 mM MOPS, 100 mM KCl, 5 mM MgCl2, 1 mM EGTA, pH 7.0; cardiac in 20 mM MOPS, 35 mM NaCl, 5 mM MgCl2, 1 mM EGTA, pH 7.0. Each well in the microplate contained an assay mix of 0.84 mM phosphoenolpyruvate, 0.17 mM NADH, 10 U/vol pyruvate kinase, 20 U/vol lactate dehydrogenase. The concentration of free Ca^2+ was controlled by EGTA buffering ([35]). Myofibrils were dispensed in microplates with a multichannel pipette and were incubated with assay mix plus compound of interest for 20 min at 23 °C. The concentration of myofibrils used was 0.01 mg/ml for skeletal and 0.05 mg/ml for cardiac myofibrils. The assay was started upon the addition of ATP, at a final concentration of 2.1 mM (total volume to 200 μl), and absorbance was recorded at 340 nm in a SpectraMax Plus microplate spectrophotometer from Molecular Devices. The steady-state myofibrillar ATPase rate was measured from NADH oxidation, measured as the rate of decrease in absorption at 340 nm for 30 min, with absorption data collected every 15 s. All data and statistical analysis of steady-state kinetics were conducted with the OriginPro program. The results were fitted with the Hill equation:(6) V=V0+(Vmax/1+10^−n∗^(pCa50−pCa)) where V is the ATPase rate and n is the Hill coefficient.
ATPase activity is reported on the μmol ATP/mg protein/min scale. Average data are presented as mean ± SD. Sample means are derived from three different myofibril preps (N = 3), each done in duplicate (n = 6).
The effects of compounds on ATPase activity of myofibrils were determined in the presence of 50 μM compound, across a 12-point pCa range from 4.0 (activation) to 8.0 (relaxation). The calcium sensitivity (pCa50) was determined by fitting the curves to the Hill equation. In all experiments, a 1% DMSO-only control was included. The normalized ATPase activity of the selected compounds can be found in Figure 6.

SMILES | effect on FLT of TMR-cC0-C2 (in words) [1] | effect on FLT of TMR-fC1-C2 (in words) [2] | effect on FLT-FRET / binding between FMAL-actin and TMR-cC0-C2 (in words) [3] | 473-nm Δτ, Repeat 1 [6] [ns] | 473-nm Δτ, Repeat 2 [6] [ns] | 473-nm z-score (based on avg Δτ) [6] | 532-nm Δτ, Repeat 1 (TMR-cC0-C2) [ns] | 532-nm Δτ, Repeat 2 (TMR-cC0-C2) [ns] | 532-nm z-score (based on avg Δτ) (TMR-cC0-C2) | cC0-C2/cC0-C2#P (ratio of FLT changes) [1] | cC0-C2 FLT change (% change from DMSO, FLT of TMR-MyBP-C) [1] [%] | cC0-C2#P FLT change (% change from DMSO, FLT of TMR-MyBP-C) [7] [%] | cC0-C2/fC1-C2 (ratio of FLT changes) [2] | fC1-C2 FLT change (% change from DMSO, FLT of TMR-MyBP-C) [2] [%] | effect on skeletal MF ATPase activity (in words) [8] | also measured
CC(C(=O)O)c1ccc2c(c1)CC(=O)c1ccccc1S2 (stereo not shown) [Zaltoprofen] | do not affect | do not affect | decreased | 0.113 | 0.083 | 5.52 | -0.015 | 0.015 | 0.04 |  |  |  |  |  |  | specificity of FLT-FRET effect for unphosphorylated over phosphorylated cC0-C2 ([3]; effect on cC0-C2 compared to phosphorylated cC0-C2 (Tables 1 and 2)): stronger reduction of FRET with non-phosphorylated than phosphorylated; effect on FLT-FRET / binding between FMAL-actin and PKA-phosphorylated TMR-cC0-C2 (in words) [4]: decreased; effect on FLT-FRET / binding between FMAL-actin and TMR-fC1-C2 (in words) [5]: decreased
O=C(Nc1cccc2c(=O)cc(-c3nnn[nH]3)oc12)c1ccc(OCCCCc2ccccc2)cc1 [Pranlukast] |  |  |  | 0.061 | 0.008 | 1.95 | 0.073 | 0.116 | 5.80 | 0.6 | 30.7 | 50.1 | 0.6 | 50.3 | affected | effect on skeletal MF ATPase activity (in words) ([8]; listed as Pranleukast): affected ATPase
C#Cc1cccc(Nc2ncnc3cc(OCCOC)c(OCCOC)cc23)c1 [Erlotinib] | increases; also recorded: affect | increases | decrease | 0.026 | 0.001 | 0.78 | 0.100 | 0.119 | 6.74 | 1.0 | 9.8 | 9.7 | 1.2 | 8.5 | affected; also recorded: affect skeletal muscle ATPase | effect on FLT of PKA-phosphorylated TMR-cC0-C2 (in words) ([7]; concentration-response, no actin): increases
NC(=O)c1cc[n+](CC2=C(C(=O)O)N3C(=O)[C@@H](NC(=O)[C@@H](c4ccccc4)S(=O)(=O)[O-])[C@H]3SC2)cc1 [Cefsulodin sodium] |  |  |  | 0.394 | 0.316 | 19.91 | 0.114 | 0.083 | 6.07 | 1.1 | 9.1 | 8.1 | 0.8 | 11.5 | affected ATPase | effect on skeletal MF ATPase activity (in words) ([8]; listed as Cefsoludin sodium): affected
C[C@@H](O)[C@H]1C(=O)N2C(C(=O)[O-])=C(S[C@@H]3CN[C@H](C(=O)Nc4cccc(C(=O)O)c4)C3)[C@H](C)[C@H]12.[Na+] [Ertapenem sodium] |  |  |  | 0.353 | 0.231 | 16.37 | 0.079 | 0.157 | 7.23 | 1.3 | 10.2 | 8.0 | 0.8 | 12.2 | marked increase in ATPase activity at pCa 8; also recorded: affected ATPase | effect on Ca^2+-sensitivity of skeletal MF ATPase (in words) [8]: altered Ca^2+ sensitivity
